Experiments:
[1] = Absorption spectra / molar absorption coefficients (Beer-Lambert) in ethanol; format: physicochemical; conditions: for ε/10^3: infrared absorption maximum
[2] = Triplet lifetimes by nanosecond laser flash photolysis, excitation at 355 nm; format: physicochemical; conditions: triplet lifetime in aerated ethanol
[3] = Singlet oxygen quantum yield in ethanol (phosphorescence at 1270 nm, phenalenone reference); format: physicochemical; conditions: aerated ethanol
[4] = system: HT-29 (human colon carcinoma) cells; test: In vitro phototoxicity, resazurin cell viability after irradiation at 749 nm; format: cell-based; conditions: light dose 1 J/cm^2 at 749 nm, 24 h incubation
[5] = system: CT26 (mouse colon carcinoma) cells; test: as above; format: cell-based
[6] = photodecomposition quantum yield, aerated methanol:PBS (3:2), 749 nm, 640 mW
[7] = system: subcutaneous CT26 tumor; test: Vascular-PDT of subcutaneous CT26 tumor in BALB/c mice with enriched atropisomer compositions (Example 7); format: in vivo; conditions: nominal 0.7 mg/kg i.v., 15 min later 55 J on 1.33 cm^2
[8] = in ethanol, reference; cited from earlier work
[9] = light dose 1 J/cm^2 at 749 nm, extrapolated from non-linear regression curve
[10] = light dose 1 J/cm^2 at 749 nm, 24 h incubation

In the case of CNS(=O)(=O)c1ccc(F)c(-c2c3nc(c(-c4c(F)ccc(S(=O)(=O)NC)c4F)c4ccc([nH]4)c(-c4c(F)ccc(S(=O)(=O)NC)c4F)c4nc(c(-c5c(F)ccc(S(=O)(=O)NC)c5F)c5ccc2[nH]5)CC4)CC3)c1F (single isomer, unassigned) [LUZ11-A], the λmax [1] is reported as 743 nm, the “ε/10^3” value [1] is reported as 126 M^−1 cm^−1 and the “τT (air)” value [2] is reported as 257 ± 7 ns. For the same molecule, the ΦΔ [3] was 0.39, the IC50 [4] was 0.343 µM and the IC90 [4] was 1.01 µM. For the same molecule, the IC50 ([5]; light dose 1 J/cm^2, Table 1, extrapolated from non-linear regression curve) was 67.3 µM, the IC50 [5, 9] was 67.3 µM and the IC90 [5, 9] was 2830 µM. For the same molecule, the “ΦPD/10^−6” value [6] was 15.

For CNS(=O)(=O)c1ccc(F)c(-c2c3nc(c(-c4c(F)ccc(S(=O)(=O)NC)c4F)c4ccc([nH]4)c(-c4c(F)ccc(S(=O)(=O)NC)c4F)c4nc(c(-c5c(F)ccc(S(=O)(=O)NC)c5F)c5ccc2[nH]5)CC4)CC3)c1F (single isomer, unassigned) [LUZ11-B], the λmax [1] was 743 nm, the “ε/10^3” value [1] was 137 M^−1 cm^−1 and the “τT (air)” value [2] was 296 ± 33 ns. It also gave a ΦΔ [3] of 0.35, an IC50 [4] of 0.178 µM and an IC90 [4] of 0.433 µM. For the same molecule, the IC50 ([5]; light dose 1 J/cm^2, Table 1) was 1.46 µM, the IC50 [5, 10] was 1.46 µM and the IC90 [5, 9] was 7.53 µM. For the same molecule, the “ΦPD/10^−6” value [6] was 15.

CNS(=O)(=O)c1ccc(F)c(-c2c3nc(c(-c4c(F)ccc(S(=O)(=O)NC)c4F)c4ccc([nH]4)c(-c4c(F)ccc(S(=O)(=O)NC)c4F)c4nc(c(-c5c(F)ccc(S(=O)(=O)NC)c5F)c5ccc2[nH]5)CC4)CC3)c1F [LUZ11] gave an IC50 [4] of 0.367 µM, an IC90 [4] of 0.588 µM and an IC50 [5, 10] of 0.871 µM. The IC90 [5, 10] was 4.31 µM, the “long-term cures (tumor-free 60 days after the treatment)” value [7] was “not possible to obtain long-term cures” and the median survival time [7] was 20 days.

For O=C1C=Cc2cccc3cccc1c23 [phenalenone], the “singlet oxygen quantum yield ΦΔ (literature value)” value [8] is listed as 0.95.

For CNS(=O)(=O)c1ccc(F)c(-c2c3nc(c(-c4c(F)ccc(S(=O)(=O)NC)c4F)c4ccc([nH]4)c(-c4c(F)ccc(S(=O)(=O)NC)c4F)c4nc(c(-c5c(F)ccc(S(=O)(=O)NC)c5F)c5ccc2[nH]5)CC4)CC3)c1F [sample X], the “long-term cures (tumor-free 60 days after the treatment)” value [7] was “absence of long-term cures”, the median survival time [7] was 18 days and the “median survival time shorter than with the LUZ11 sample” value [7] was 2 days.

From patent publication US11484593B2, “Atropisomers of halogenated tetraphenylbacteriochlorins and chlorins and their use in photodynamic therapy” (LUZITIN, S.A., priority 2015, dated 2022)
